{"source": "patent US7989479B2", "about": "“Use of a p38 kinase inhibitor for treating psychiatric disorders” (GlaxoSmithKline LLC, priority 2006, dated 2011)", "key": {"[1]": {"tested_on": "LPS induced sickness behaviour", "assay": "LPS induced sickness behaviour in rats", "assay_type": "in vivo", "details": "20 mg/kg p.o. 1 hour before LPS (125 ug/kg i.p.), behavioural assessments 2 hours thereafter", "source_text": "(§1) Administration of lipopolysaccharide (LPS) to rats is known to produce not only robust measures of sickness behaviour (reduced locomotor activity, reduced intake of both food and water, decreased body weight & decreased social interest) but also large elevations of peripheral pro-inflammatory cytokines and HPA-axis markers that can mimic some of the symptoms and underlying pathobiology observed in major depressive disorder (Dunn et al., (2005). Neurosci. Behav. Rev., 29, 891-909). Indeed the injection of cytokines into man produces such neuropsychiatric disturbances in non-major depressive disorder patients (Schiepers & Maes (2005). Prog. Neuro-psychopharmacol. & Biol. Psych., 29, 201-217).\n(§2) 6-(5-Cyclopropylcarbamoyl-3-fluoro-2-methyl-phenyl)-N-(2,2-dimethylpropyl)-nicotinamide was administered (p.o.) 1 hour before the administration of LPS (125 ug/kg i.p.) and then behavioural assessments were performed 2 hours thereafter. A satelite group of animals were treated in the same way and blood samples taken for biomarker analysis."}, "[2]": {"tested_on": "LPS induced elevations in TNF-a, IL-6, IL-10 and ACTH levels", "assay": "LPS induced elevations of cytokines and HPA-axis markers in blood (biomarker analysis, satellite group)", "assay_type": "in vivo", "details": "rats; 20 mg/kg p.o. 1 hour before LPS (125 ug/kg i.p.); blood samples", "source_text": "as §1, §2"}}, "data": [{"smiles": "Cc1c(F)cc(C(=O)NC2CC2)cc1-c1ccc(C(=O)NCC(C)(C)C)cn1", "note": "[6-(5-Cyclopropylcarbamoyl-3-fluoro-2-methyl-phenyl)-N-(2,2-dimethylpropyl)-nicotinamide]", "values": [{"measurement": "reversal of LPS induced sickness behaviour", "setting": "[1]", "result": "significantly reversed"}, {"measurement": "reduction in LPS induced elevation in ACTH level", "setting": "[2]", "result": "> 80", "unit": "%"}, {"measurement": "reduction in LPS induced elevation in IL-6 level", "setting": "[2]", "result": "> 80", "unit": "%"}, {"measurement": "reduction in LPS induced elevation in IL-10 level", "setting": "[2]", "result": "> 80", "unit": "%"}, {"measurement": "reduction in LPS induced elevation in TNF-a level", "setting": "[2]", "result": "> 80", "unit": "%"}]}]}
